Conditions: Liquid; for viscosity: Concentric cylinders viscometry

C=CCn1cc[n+](C)c1.O=S(=O)([N-]S(=O)(=O)C(F)(F)F)C(F)(F)F
100 kPa
Conditions | viscosity [mPa·s]
293.15 K | 40.69
303.15 K | 28.08
313.15 K | 20.31
323.15 K | 15.29
333.15 K | 11.91
343.15 K | 9.52
353.15 K | 7.783
363.15 K | 6.489

Conditions | mass density [kg/m3]
293.15 K, 100 kPa, Vibrating tube method | 1506.1
303.15 K, 100 kPa, Vibrating tube method | 1496
312.5 K, 10000 kPa, Bellows volumetry | 1493.8
312.5 K, 20000 kPa, Bellows volumetry | 1501.1
312.5 K, 30000 kPa, Bellows volumetry | 1508
312.5 K, 40000 kPa, Bellows volumetry | 1514.7
312.5 K, 50000 kPa, Bellows volumetry | 1521
312.5 K, 60000 kPa, Bellows volumetry | 1527.1
312.5 K, 70000 kPa, Bellows volumetry | 1533.1
312.5 K, 80000 kPa, Bellows volumetry | 1538.8
312.5 K, 90000 kPa, Bellows volumetry | 1544.2
312.5 K, 100000 kPa, Bellows volumetry | 1549.5
312.5 K, 110000 kPa, Bellows volumetry | 1554.7
312.5 K, 120000 kPa, Bellows volumetry | 1559.7
312.5 K, 130000 kPa, Bellows volumetry | 1564.7
312.5 K, 140000 kPa, Bellows volumetry | 1569.4
312.5 K, 150000 kPa, Bellows volumetry | 1574
312.5 K, 160000 kPa, Bellows volumetry | 1578.6
312.5 K, 170000 kPa, Bellows volumetry | 1583.2
312.5 K, 180000 kPa, Bellows volumetry | 1587.5
312.5 K, 190000 kPa, Bellows volumetry | 1591.8
312.5 K, 200000 kPa, Bellows volumetry | 1596
313.15 K, 100 kPa, Vibrating tube method | 1486
323.15 K, 100 kPa, Vibrating tube method | 1476
332.3 K, 10000 kPa, Bellows volumetry | 1474.5
332.3 K, 20000 kPa, Bellows volumetry | 1482.1
332.3 K, 30000 kPa, Bellows volumetry | 1489.6
332.3 K, 40000 kPa, Bellows volumetry | 1496.7
332.3 K, 50000 kPa, Bellows volumetry | 1503.4
332.3 K, 60000 kPa, Bellows volumetry | 1509.7
332.3 K, 70000 kPa, Bellows volumetry | 1515.8
332.3 K, 80000 kPa, Bellows volumetry | 1521.7
332.3 K, 90000 kPa, Bellows volumetry | 1527.3
332.3 K, 100000 kPa, Bellows volumetry | 1533
332.3 K, 110000 kPa, Bellows volumetry | 1538.5
332.3 K, 120000 kPa, Bellows volumetry | 1543.8
332.3 K, 130000 kPa, Bellows volumetry | 1548.9
332.3 K, 140000 kPa, Bellows volumetry | 1553.7
332.3 K, 150000 kPa, Bellows volumetry | 1558.5
332.3 K, 160000 kPa, Bellows volumetry | 1563.3
332.3 K, 170000 kPa, Bellows volumetry | 1568
332.3 K, 180000 kPa, Bellows volumetry | 1572.5
332.3 K, 190000 kPa, Bellows volumetry | 1576.9
332.3 K, 200000 kPa, Bellows volumetry | 1581.4
333.15 K, 100 kPa, Vibrating tube method | 1466.1
343.15 K, 100 kPa, Vibrating tube method | 1456.3
352.4 K, 10000 kPa, Bellows volumetry | 1455.3
352.4 K, 20000 kPa, Bellows volumetry | 1463.6
352.4 K, 30000 kPa, Bellows volumetry | 1471.5
352.4 K, 40000 kPa, Bellows volumetry | 1479
352.4 K, 50000 kPa, Bellows volumetry | 1486.1
352.4 K, 60000 kPa, Bellows volumetry | 1492.9
352.4 K, 70000 kPa, Bellows volumetry | 1499.3
352.4 K, 80000 kPa, Bellows volumetry | 1505.6
352.4 K, 90000 kPa, Bellows volumetry | 1511.4
352.4 K, 100000 kPa, Bellows volumetry | 1517.2
352.4 K, 110000 kPa, Bellows volumetry | 1522.8
352.4 K, 120000 kPa, Bellows volumetry | 1528.3
352.4 K, 130000 kPa, Bellows volumetry | 1533.5
352.4 K, 140000 kPa, Bellows volumetry | 1538.7
352.4 K, 150000 kPa, Bellows volumetry | 1543.7
352.4 K, 160000 kPa, Bellows volumetry | 1548.5
352.4 K, 170000 kPa, Bellows volumetry | 1553.3
352.4 K, 180000 kPa, Bellows volumetry | 1558
352.4 K, 190000 kPa, Bellows volumetry | 1562.6
352.4 K, 200000 kPa, Bellows volumetry | 1567.1
353.15 K, 100 kPa, Vibrating tube method | 1446.5
363.15 K, 100 kPa, Vibrating tube method | 1436.8
372.5 K, 10000 kPa, Bellows volumetry | 1436.7
372.5 K, 20000 kPa, Bellows volumetry | 1445.3
372.5 K, 30000 kPa, Bellows volumetry | 1453.7

Reference: the NIST ThermoML archive (doi:10.1021/acs.jced.7b00773)
